Measured values from US20070203137A1, “New Salt” (ASTRAZENECA AB, priority 2006, published 2007).
Where a name gives a salt, the structure may show the parent alone.

Legend:
[1] = Photo stability of bulk substance (Suntest CPS+ cabinet); conditions: 29 hours
Method: The exposure was 250 Wh/m^2 and 1.2 million lux hours over 29 hours.

[2] = Hygroscopicity by Dynamic Vapour Sorption Analysis (DVS); format: physicochemical; conditions: 25° C.
Method: Dynamic Vapour Sorption Analysis (DVS)
The studies were undertaken using Dynamic Vapour Sorption Apparatus (DVS, Surface Measurement Systems, London UK). The apparatus consists of Cahn micobalance housed inside a temperature-controled cabinet. All experiments were performed at 25° C. The DVS was used to characterize the moisture uptake (w/w %) at different relative humidities (RH). Samples (5-10 mg) were weighed directly into the DSV sample cup and exposed to different relative humidities.

| photo stability compared with the hydrochloride salt and the free base [1] | moisture uptake ([2]; 40% relative humidity, citrate) | moisture uptake ([2]; 60% relative humidity, citrate) | moisture uptake ([2]; 80% relative humidity, citrate) | hygroscopicity compared with the hydrochloride salt ([2]; DVS) | moisture uptake ([2]; 40% relative humidity) | moisture uptake ([2]; 60% relative humidity) | moisture uptake ([2]; 80% relative humidity) | SMILES |
| --- | --- | --- | --- | --- | --- | --- | --- | --- |
| much higher photo stability | 7.1 w/w % | 7.6 w/w % | 8.0 w/w % | lower hygroscopicity | – | – | – | N#Cc1ccc2[nH]c(O)c(-c3ccc(CN4CCOCC4)cn3)c2c1 [Citrate, 2-hydroxy-3-[5-(morpholin-4-ylmethyl)pyridin-2-yl]1H-indole-5-carbonitrile citrate] |
| – | – | – | – | – | 8.7 w/w % | 11.5 w/w % | 13.0 w/w % | N#Cc1ccc2[nH]c(O)c(-c3ccc(CN4CCOCC4)cn3)c2c1 [HCl, hydrochloride salt of 2-hydroxy-3-[5-(morpholin-4-ylmethyl)pyridin-2-yl]1H-indole-5-carbonitrile, reference compound] |
